Reference: EP0449649A2, “Antineoplastic quinones and methods of using same” (priority 1990, dated 1991)
Values after ≈ are worked out from the molar mass of the structure shown. Like-named read-outs stand apart in the source and are kept apart here.

Tests used:
Fresh ovarian tumors = assay: clonogenic assay on fresh ovarian tumors from patients; type: cell-based, human
Protocol: (§1) (see: Salmon, S.E. et al, Cancer Treat Rep., 1981, 65, 102; Salmon, S.E. et al, N. Engl. J. Med., 1978, 298, 1231;and Albert, DS, Cancer Chemother Pharmacol, 1981, 6, 253). The protocol employed for MTT assays are reported. (see: Mossman T.J. Immunol Methods, 1983, 65, 55).
Fresh ovarian tumors were collected from twelve (12) confirmed ovarian cancer patients. Azimitosene 1c was tested in vitro using the clonogenic assay described by Salmon et al, Salmon et al, and Albert et al (op cit). The IC₅₀ data (the drug concentration required to obtain 50% inhibition of tumor colony formation after 1 hour exposure to test compound) obtained from these assays are shown in Table 1.

[1] = tested on: doxorubicin-sensitive ovarian cancer (2780/S); assay: in vitro screen against doxorubicin-sensitive ovarian cancer; type: cell-based; conditions: read-out: IC₅₀
Excerpt: as §1
(§2) 6-(N-Aziridinyl)-7-methyl-2, 3-dihydro - 1H- pyrrolo [1, 2-a] benzimidazole-5, 8-dione-3-acetate (1c) was screened for in vitro activity against doxorubicin-sensitive ovarian cancer (2780/S) and 110-fold doxorubicin-resistant ovarian cancer (2780/DOX).
(§3) 6-(N-Aziridinyl)-7-methyl-2, 3-dihydro - 1H- pyrrolo [1, 2-ª] benzimidazole-5, 8-dione-3-carbamate (1d) was screened for in vitro activity against doxorubicin-sensitive (2780/S) and doxorubicin-resistant (2780/DOX) ovarian cancer.

8226/S human myeloma = assay: in vitro screen against 8226/S myeloma; type: cell-based; conditions: read-out: IC₅₀
Excerpt: as §1
6-(N-Aziridinyl)-7-methyl-2, 3-dihydro - 1H- pyrrolo [1, 2-ª] benzimidazole-5, 8-dione-3-acetate (1c) was screened for in vitro activity against 8226/S human myeloma.
6-(N-Aziridinyl)-7-methyl-2, 3-dihydro - 1H- pyrrolo [1, 2-ª] benzimidazole-5, 8-dione-3-carbamate (1d) was screened for in vitro activity against 8226/S myeloma.

[2] = tested on: 110-fold doxorubicin-resistant ovarian cancer (2780/DOX); assay: in vitro screen against doxorubicin-resistant ovarian cancer; type: cell-based; conditions: read-out: IC₅₀
Excerpt: as §1, §2, §3

[3] = tested on: cisplatin-sensitive (2008/S) ovarian cancers; assay: in vitro screen against cisplatin-sensitive ovarian cancer; type: cell-based; conditions: for IC₅₀: in vitro
Excerpt: as §1
(§4) 6-(N-Aziridinyl)-7-methyl-2, 3-dihydro - 1H- pyrrolo [1, 2-ª] benzimidazole-5, 8-dione-3-acetate (1c) was screened for in vitro activities against cisplatin-sensitive (2008/S) and cisplatin-resistant (2008/R) ovarian cancers.
(§5) 6-(N-Aziridinyl)-7-methyl-2, 3-dihydro - 1H- pyrrolo [1, 2-a] benzimidazole-5, 8-dione-3-carbamate (1d) was screened for in vitro activity against cisplatin-sensitive (2008/S) and cisplatin-resistant (2008/R) ovarian cancers.

SW480 human colon cancer = assay: in vitro screen against SW480 colon cancer; type: cell-based
Excerpt: as §1
6-(N-Aziridinyl)-7-methyl-2, 3-dihydro - 1H- pyrrolo [1, 2-ª] benzimidazole-5, 8-dione-3-acetate (1c) was screened for in vitro activity against SW480 human colon cancer.
6-(N-Aziridinyl)-7-methyl-2, 3-dihydro - 1H- pyrrolo [1, 2-ª] benzimidazole-5, 8-dione-3-carbamate (1d) was screened for in vitro activity against SW480 human colon cancer.

[4] = tested on: cisplatin-resistant (2008/R) ovarian cancers; assay: in vitro screen against cisplatin-resistant ovarian cancer; type: cell-based; conditions: for IC₅₀: in vitro
Excerpt: as §1, §4, §5

WiDr human colon cancer = assay: in vitro screen against WiDr colon cancer; type: cell-based; conditions: read-out: IC₅₀
Excerpt: as §1
6-(N-Aziridinyl)-7-methyl-2, 3-dihydro - 1H- pyrrolo [1, 2-ª] benzimidazole-5, 8-dione-3-acetate (1c) was screened for in vitro activity against WiDr human colon cancer.
6-(N-Aziridinyl)-7-methyl-2, 3-dihydro - 1H- pyrrolo [1, 2-ª] benzimidazole-5, 8-dione-3-carbamate (1d) was screened for in vitro activity against WiDr/S human colon cancer.

Compound | IC50 (Fresh ovarian tumors; 50% inhibition of tumor colony formation after 1 hour exposure, each value is the tumor of one patient (Patient No. 1-12)) | IC50 (Fresh ovarian tumors; Homo sapiens, median over the fresh ovarian tumors of Table 1, read-out: median IC₅₀) [µg/mL] | ovarian cancers that respond (Fresh ovarian tumors; share of the 12 fresh ovarian tumors of Table 1) [%] | IC50 [1] [nM] | IC50 (8226/S human myeloma) [nM] | IC50 [2] [nM] | IC50 ([3]; Homo sapiens, read-out: IC₅₀) [nM] | IC50 (SW480 human colon cancer; SW480, read-out: IC₅₀) [nM] | IC50 ([4]; Homo sapiens, read-out: IC₅₀) [nM] | IC50 (WiDr human colon cancer; WiDr) [nM] | IC₅₀ [3] | IC₅₀ [4] | IC50 ([1]; 2780/S, in vitro) [nM] | IC50 (8226/S human myeloma; 8226/S, in vitro) [nM] | IC50 ([2]; 2780/DOX, in vitro) [nM] | IC50 (SW480 human colon cancer; SW480, in vitro, read-out: IC₅₀) [nM] | IC50 (WiDr human colon cancer; WiDr (WiDr/S), in vitro) [nM]
CC(=O)OC1CCn2c1nc1c2C(=O)C(C)=C(N2CC2)C1=O (stereo not drawn) [1c, 6-(N-aziridinyl)-7-methyl-2,3-dihydro-1H-pyrrolo [1,2-a]benzimidazole-5,8-dione-3-Acetate] | unachievable | 0.05 (≈ 0.166 µM) | 91 | 0.6 | 100 | 16 | 7 | 9 | 7 | 6 |  |  |  |  |  |  | 
CC1=C(N2CC2)C(=O)c2nc3n(c2C1=O)CCC3OC(N)=O (stereo not drawn) [1d, 6-N-Aziridinyl-7-methyl-2,3-dihydro-1H-pyrrolo [1,2-a]benzimidazole-5,8-dione-3-Carbamate] |  |  |  | 100 | 140 | 200 |  | 19 |  | 100 | not attainable | not attainable |  |  |  |  | 
CO[C@@]12[C@H](COC(N)=O)C3=C(C(=O)C(C)=C(N)C3=O)N1C[C@@H]1N[C@@H]12 [MMC, mitomycin C, reference compound] |  |  |  |  |  |  |  |  |  |  | not attainable | not attainable | 100 | 200 | 200 | 7 | 20
